In PMC9317481, “Design and Synthesis of New Hydantoin Acetanilide Derivatives as Anti-NSCLC Targeting EGFR^L858R/T790M Mutations” (Pharmaceuticals, 2022):

Columns and labels:
[1] = test system: PC9 cells; assay: MTT antiproliferative assay, PC9; settings: Homo sapiens, PC-9, read-out: IC50 (µM) PC9
[2] = test system: A549 cells; assay: MTT antiproliferative assay, A549; settings: Homo sapiens, A549, read-out: IC50 (µM) A549
[3] = test system: A549, H1975, and PC9 cell lines; assay: MTT antiproliferative assay, average of the three NSCLC cell lines; settings: Homo sapiens, read-out: IC50 (µM) Average
[4] = test system: H1975 cells; assay: MTT antiproliferative assay, H1975; settings: Homo sapiens, NCI-H1975, read-out: IC50 (µM) H1975
[5] = test system: ERK; assay: ERK enzyme assay (ELISA) in A549 cells; type: cell-based, human; settings: read-out: Enzymatic Inhibition, IC50, (nM) ERK
Procedure: ERK ELISA Kit (Cat. # E4317-100, BioVision, Inc., Waltham, MA, USA) was used for the in vitro quantitative determination of Human ERK. Firstly, the plate was washed 2 times with Wash Solution before the standard, sample, and control wells were added. A total of 100 μL of each standard or sample was added into appropriate wells. […] The cover was removed and the plate content was discarded without washing or letting the wells completely dry. A total of 0.1 mL of Biotin-detection antibody work solution was added into the above wells. […] The solution was discarded and washed 3 times with Wash Solution. It was washed by filling each well with Wash Buffer (350 μL) using a multi-channel pipette or auto-washer. It was soaked for 1–2 min, and then all residual wash-liquid was removed from the wells by aspiration. After the last wash, any remaining wash buffer was removed by aspirating or decanting. The plate was clapped on absorbent filter papers or other absorbent materials. […] The solution was discarded and washed 5 times with wash solution as mentioned before. […] A total of 50 μL of Stop Solution was added to each well. The result was read at 450 nm within 20 min.

[6] = test system: Akt; assay: Akt enzyme assay (Phospho-Ser473 ELISA) in A549 cells; type: cell-based, human; settings: read-out: Enzymatic Inhibition, IC50, (nM) Akt
Procedure: Akt expression level was assayed using the Phospho Sandwich Akt (Phospho-Ser473) ELISA Kit (Cat. # MBS9511022, MyBioSource, San Diego, CA, USA) containing the components necessary for the semi-quantitative determination of Akt concentrations within experimental cell lysate samples. The assay was performed according to company protocols: the lysates were diluted with assay diluent and 100 μL/well was dispensed, wrapped with parafilm, and incubated for 2 h. They were shaken with RT or overnight at 4 °C. The plate was washed 3 times with 1× Wash Buffer 300 μL/well with a vacuum-based plate washer. Then, the plate was stricken on absorbent paper to remove as much residual liquid as possible. The Detection Antibody was diluted to 1× and 100 μL/well was dispensed, wrapped with parafilm, and incubated on a shaker for 2 hrs at RT, and the washing step was repeated. Streptavidin-HRP was diluted to 1× and 100 μL/well was dispensed, wrapped with parafilm, and incubated on a shaker for 30 min at RT. Ready-to-use substrate was brought to RT and 100 μL/well was dispensed and the reaction was allowed to incubate on an orbital shaker for 20–30 min. The reaction was stopped with stop solution 100 μL/well. The wells turned from blue to yellow and were read at 450 nm.

[7] = test system: WI-38 normal cells; assay: MTT cytotoxicity on normal fibroblast WI-38 cells; settings: for IC50: Homo sapiens, WI-38, read-out: WI-38, IC50 (µM); for fold superior to the reference erlotinib on WI-38: ratio of WI-38 IC50 versus erlotinib
Procedure: The new prepared candidates 5a–5n were evaluated for their antitumor activities against four selected cell lines, the adenocarcinomic human alveolar basal epithelial cells NCI-A549, NCI-H1975, human pulmonary adenocarcinoma PC9, and the fibroblast-like fetal lung cells WI-38 (purchased from American Type Culture Collection (ATCC), United States of America), using an MTT assay [26], as described earlier [27].

[8] = molecular target: EGFR^L858R (Homo sapiens, UniProt P00533, L858R); assay: EGFR kinase assay (L858R)
[9] = molecular target: EGFR^T790M (Homo sapiens, UniProt P00533, T790M); assay: EGFR kinase assay (T790M)
[10] = molecular target: EGFR^WT (Homo sapiens, UniProt P00533); assay: EGFR kinase assay (wild type)
[11] = test system: A549 cells; assay: Annexin V-FITC/propidium iodide apoptosis assay in A549 cells; type: cell-based, human; settings: IC50 concentration
Procedure: (§1) The active hydantoin derivative 5a was further investigated for its effect on cell cycle progression and the induction of apoptosis in A549 cells. Exposure of A549 cells to 5a at its IC50 value led to an interference with the normal cell cycle distribution of the cell (Figure 5). […] Meanwhile, 5a was evaluated for its ability to induce apoptosis in A549 cells by staining with propidium iodide and Annexin V-FITC.
(§2) Cell cycle analysis and Annexin V-FITC apoptosis assay were performed as described earlier.
Figure 6 Apoptotic effect of compound 5a on A549 cells. Representative cytograms of apoptotic A549 cells stimulated with 5a or DMSO as a negative control for 24 h. TEXT PRINTED IN THE PICTURE: Control: Necrosis 0.94%; Late apoptosis 0.26%; Early apoptosis 0.41% | 5a: Necrosis 11.59%; Late apoptosis 19.89%; Early apoptosis 3.77%

[12] = test system: A549 cells; assay: Cell cycle analysis by flow cytometry in A549 cells; type: cell-based, human; settings: 5a at its IC50 value
Procedure: as §1, §2
Figure 5 Compound 5a arrested the cell cycle at the sub G1 and S phases in A549 cells. Representative cell cycle distribution data are shown by flow cytometric analysis upon incubation with 5a or DMSO as a negative control for 24 h.

[13] = test system: A549 cells; assay: Wound healing assay in A549 cells; type: cell-based, human; settings: 0.5, 1 or 2 µM, 72 h
Procedure: Various articles have highlighted the role of EGFR in the migration of tumor cells. Accordingly, the migratory effects of 5a in A549 cells were assessed using a wound healing assay.
Wound healing assay of 5a was performed using CytoSelect™ 24-well Wound Healing Assay kit (Cat. # CBA-120, Cell Biolabs Inc., Cambridge, UK) per manufacturer’s instructions. In brief, the 24-well plate wound healing inserts were allowed to warm up at room temperature for 10 min., then to each well, 500 µL of A549 cells suspension ([…]) in media containing 10% fetal bovine serum (FBS) was added. Cells were kept in a cell culture incubator until a monolayer formed. Carefully, the insert was removed from the well. The media were slowly aspirated and discarded from the wells. The wells were washed with media to remove dead cells and debris. Finally, the media were added to wells to keep cells hydrated, then wells were visualized under a light microscope. Media containing the indicated concentrations of compound 5a (0.5, 1, or 2 µM) were then added into the wells for 72 h. the wound closure was monitored with a light microscope. The percent closure of the cells into the wound field was measured.

[14] = molecular target: T1, EGFR phosphorylation (Homo sapiens, UniProt P00533); assay: Western blot of EGFR phosphorylation expression in A549 cells; type: cell-based
T1 construct: A549 (harbor EGFR^WT); endogenous in cells; host or cells: A549
Procedure: In addition, the obtained data were attuned to β-actin expression to exclude the deviations further.
The western blot experiment was performed according to the same procedure described earlier.

[15] = A549 cells treated by 5a, Western blot

SMILES	melting point	IC50 [1]	IC50 [2]	IC50 [3]	IC50 [4]	other results
COc1ccc(NC(=O)CN2C(=O)NC(C)(c3ccccc3)C2=O)c(C)c1 (stereo not shown) [5j, N-(4-methoxy-2-methylphenyl)-2-(4-methyl-2,5-dioxo-4-phenylimidazolidin-1-yl)acetamide]	143 to 146 °C	9.97 ± 1.08 µM	4.11 ± 0.26 µM	15 µM	30.9 ± 1.68 µM	–
CC1(c2ccccc2)NC(=O)N(CC(=O)Nc2cccc(F)c2)C1=O (stereo not shown) [5g, N-(3-fluorophenyl)-2-(4-methyl-2,5-dioxo-4-phenylimidazolidin-1-yl)acetamide]	182 to 185 °C	11.5 ± 1.25 µM	37.6 ± 2.37 µM	18.7 µM	6.84 ± 0.37 µM	–
CC1(c2ccccc2)NC(=O)N(CC(=O)Nc2ccc(F)c(F)c2)C1=O (stereo not shown) [5h, N-(3,4-difluorophenyl)-2-(4-methyl-2,5-dioxo-4-phenylimidazolidin-1-yl)acetamide]	195 to 198 °C	15.4 ± 1.67 µM	11.9 ± 0.75 µM	16.2 µM	21.3 ± 1.16 µM	–
C#Cc1cccc(Nc2ncnc3cc(OCCOC)c(OCCOC)cc23)c1 [Erlotinib, erlotinib, reference compound]	–	16.3 ± 0.84 µM	7.81 ± 0.43 µM	11.3 µM	9.7 ± 0.53 µM	IC50 [5]: 17.5 ± 0.18 nM; IC50 [6]: 25.4 nM; IC50 [7]: 18.6 ± 1.24 µM
COc1ccccc1NC(=O)CN1C(=O)NC(C)(c2ccccc2)C1=O (stereo not shown) [5m, N-(2-methoxyphenyl)-2-(4-methyl-2,5-dioxo-4-phenylimidazolidin-1-yl)acetamide]	85 to 90 °C	28.3 ± 3.08 µM	12.3 ± 0.78 µM	14.3 µM	2.27 ± 0.12 µM	–
COc1ccc(NC(=O)CN2C(=O)NC(C)(c3ccccc3)C2=O)cc1Cl (stereo not shown) [5c, N-(3-chloro-4-methoxyphenyl)-2-(4-methyl-2,5-dioxo-4-phenylimidazolidin-1-yl)acetamide]	163 to 166 °C	21.3 ± 2.31 µM	91.4 ± 5.75 µM	56 µM	55.3 ± 3.01 µM	–
COc1ccc(NC(=O)CN2C(=O)NC(C)(c3ccccc3)C2=O)cc1OC (stereo not shown) [5a, N -(3,4-dimethoxyphenyl)-2-(4-methyl-2,5-dioxo-4-phenylimidazolidin-1-yl)acetamide]	–	10.2 ± 0.53 µM	2.26 ± 0.12 µM	4.79 µM	1.94 ± 0.25 µM	IC50 [8]: 0.05 ± 0.001 µM; IC50 [9]: 0.09 ± 0.002 µM; IC50 [5]: 25.8 ± 41 nM; elevation of early apoptotic cells compared to the negative control [11]: 77 folds; elevation of late apoptotic cells compared to the negative control [11]: 9 folds; Early apoptosis ([11]; 24 h): 3.77%; Late apoptosis ([11]; 24 h): 19.89%; Necrosis ([11]; 24 h): 11.59%; boost of cells at pre-G1 compared to the control [12]: 22 folds; cells at S phase ([12]; 24 h): 40.40%; cells at sub G1 phase ([12]; 24 h): 35.25%; IC50 [6]: 33.8 ± 0.55 nM; wound closure and migration of A549 cells [13]: reduced the wound closure and the migration of A549 cells substantially in a dose-dependent manner; OD (EGFR) [14, 15]: 0.79; OD (pEGFR) [14, 15]: 0.33; fold decrease in expression level of EGFR phosphorylation compared to control ([14]; A549 cells, 0.03 µM of 5a, normalised to β-actin): 2.5 fold; IC50 [7]: 49.3 ± 2.75 µM; fold superior to the reference erlotinib on WI-38 [7]: 2.6 fold; IC50 [10]: 0.03 ± 0.005 µM

These reach a lower IC50 [1]. Values come first.

melting point	IC50 [1]	IC50 [2]	IC50 [3]	IC50 [4]	SMILES	other results
122 to 125 °C	5.12 ± 0.56 µM	14.5 ± 0.92 µM	9.29 µM	8.2 ± 0.45 µM	CC1(c2ccccc2)NC(=O)N(CC(=O)Nc2ccc(S(N)(=O)=O)cc2)C1=O (stereo not shown) [5b, N-(4-aminosulphonylphenyl)-2-(4-methyl-2,5-dioxo-4-phenylimidazolidin-1-yl)acetamide]	–
153 to 155 °C	6.69 ± 0.73 µM	2.37 ± 0.15 µM	17.6 µM	43.8 ± 2.39 µM	CCOc1ccc(NC(=O)CN2C(=O)NC(C)(c3ccccc3)C2=O)cc1 (stereo not shown) [5l, N-(4-ethoxyphenyl)-2-(4-methyl-2,5-dioxo-4-phenylimidazolidin-1-yl)acetamide]	–
170 to 173 °C	7.5 ± 0.81 µM	35.8 ± 2.26 µM	18.4 µM	11.9 ± 0.65 µM	COc1ccc(C)cc1NC(=O)CN1C(=O)NC(C)(c2ccccc2)C1=O (stereo not shown) [5d, N-(2-methoxy-5-methylphenyl)-2-(4-methyl-2,5-dioxo-4-phenylimidazolidin-1-yl)acetamide]	–
148 to 151 °C	6.87 ± 0.75 µM	0.42 ± 0.03 µM	8.7 µM	18.8 ± 1.02 µM	COc1cccc(NC(=O)CN2C(=O)NC(C)(c3ccccc3)C2=O)c1 (stereo not shown) [5n, N-(3-methoxyphenyl)-2-(4-methyl-2,5-dioxo-4-phenylimidazolidin-1-yl)acetamide]	–
153 to 155 °C	4.4 ± 0.48 µM	1.94 ± 0.12 µM	2.57 µM	1.38 ± 0.07 µM	CC1(c2ccccc2)NC(=O)N(CC(=O)Nc2ccccc2F)C1=O (stereo not shown) [5f, N-(2-fluorophenyl)-2-(4-methyl-2,5-dioxo-4-phenylimidazolidin-1-yl)acetamide]	IC50 [8]: 0.17 ± 0.003 µM; IC50 [9]: 0.26 ± 0.005 µM; IC50 [7]: 42.5 ± 2.32 µM; fold superior to the reference erlotinib on WI-38 [7]: 2.3 fold; IC50 [10]: 0.06 ± 0.011 µM
170 to 173 °C	3.25 ± 0.35 µM	68.6 ± 4.32 µM	25.9 µM	5.84 ± 0.32 µM	CC1(c2ccccc2)NC(=O)N(CC(=O)Nc2ccc(F)c(Cl)c2)C1=O (stereo not shown) [5k, N-(3-chloro-4-fluorophenyl)-2-(4-methyl-2,5-dioxo-4-phenylimidazolidin-1-yl)acetamide]	–
205 to 210 °C	6.06 ± 0.35 µM	0.73 ± 0.05 µM	6.93 µM	14 ± 0.76 µM	CC1(c2ccccc2)NC(=O)N(CC(=O)Nc2ccc(F)c(F)c2F)C1=O (stereo not shown) [5i, N-(2,3,4-trifluorophenyl)-2-(4-methyl-2,5-dioxo-4-phenylimidazolidin-1-yl)acetamide]	–
226 to 228 °C	2.52 ± 0.27 µM	7.19 ± 0.45 µM	6.35 µM	9.34 ± 0.51 µM	CC1(c2ccccc2)NC(=O)N(CC(=O)Nc2ccc(F)cc2)C1=O (stereo not shown) [5e, N-(4-fluorophenyl)-2-(4-methyl-2,5-dioxo-4-phenylimidazolidin-1-yl)acetamide]	–
